Data published in US20220002396A1, “METHODS OF TREATING CANCER WITH FARNESYLTRANSFERASE INHIBITORS” (Kura Oncology, Inc., priority 2018, published 2022).

Key:
Assay type in all cases: in vivo, human
breast cancer = experiment: Phase II study of tipifarnib in breast cancer patients (Study GBR-1)
Description: Biomarkers in breast cancer were also examined for their relationship to CXCL12/IGF1 expression and to the activity of tipifarnib when administered to patients. A phase II study was performed with 76 patients treated with tipifarnib (Study GBR-1). Patients were tested for estrogen-receptor positivity (ER+) or negativity (ER−), progesterone receptor positivity (PGR+) or negativity (PGR−), and the presence or absence of TP53 mutation. Overall response rate in the study was 12%. Biomarker data was available for 41 patients.

previously untreated AML = experiment: Tipifarnib monotherapy in elderly patients with previously untreated AML (CTEP-20), outcome by IGF1/CXCL12 expression
Description: (§1) Gene expression profile (GEP) data generated using RNA-Seq and the Affymetrix U133A gene-chip of tumor samples from 71 patients enrolled in tipifarnib trials (CTEP-20, KO-TIP-002, KO-TIP-004) were analyzed with respect to study outcomes and complemented with analyses of mRNA expression in data sets from the cBioportal for Cancer Genomics. Clinical trial information: NCT00027872, NCT02464228, NCT02807272.
Data from a study investigating tipifarnib monotherapy in elderly patients with previously untreated AML (CTEP-20) was examined in detail to determine the effect of the expression of CXCL12 and IGF1 on the response of the patients to tipifarnib.
The effect of IGF1/CXCL12 co-expression on patient outcome in tipifarnib was examined. In previously untreated AML, 3 subsets of patients were identified with respect to IGF1/CXCL12 expression (FIG. 2A). These subsets were 1) high IGF1, high CXCL12 (left boxplots), 2) intermediate IGF1, low CXCL12 (middle boxplots), and 3) low IGF1, variable CXCL12, (right boxplots).
When CXCL12 was at low levels and IGF1 was at intermediate levels, low CXCL12 levels translates to disease progression with 1 CR and 8 with progressive disease (PD) as outcome (FIG. 2C). When the IGF1 levels were low, CXCL12 had variable levels and six patients out of 15 experienced CR. […] Receiver-Operator-Characterisitics (ROC) curves for prediction of a CR in these patients confirmed that higher CXCL12 and lower IGF1 levels were predictive of complete responses in the AML patient population (FIG. 2E).

CMML = experiment: Tipifarnib-treated CMML subjects with pre-treatment BM gene expression data; conditions: in 17 tipifarnib-treated CMML subjects
Description: as §1
Four objective responses and 1 tumor lysis syndrome were reported in 17 tipifarnib-treated CMML subjects with available pre-treatment BM gene expression data. CXCL12 expression (p=0.07) and the CXCL12/CXCR4 ratio (p=0.03) were predictive of those events while IGF1 expression levels were barely detectable in these patients.

nodal PTCL = experiment: Tipifarnib monotherapy in nodal PTCL patients with pre-treatment GEP data; conditions: 13 nodal PTCL patients
Description: as §1
The effect of CXCL12 and IGF1 was also investigated in 13 nodal PTCL patients with pre-treatment GEP data who received tipifarnib monotherapy. […] Adjusting the IGFBP7 expression to the level of IGF1R expression also identified those patients as responders to therapy.

[1] = system: advanced pancreatic adenocarcinoma; experiment: Randomized, double-blind, placebo-controlled study of gemcitabine+tipifarnib versus gemcitabine+placebo (Study INT-17 / INT-11)
Description: In a randomized, double-blind, placebo-controlled study of gemcitabine+tipifarnib versus gemcitabine+placebo in patients with advanced pancreatic adenocarcinoma previously untreated with systemic therapy, tipifarnib (R115777) was administered at a dosage amount of 200 mg twice a day, orally, and continuously (Study INT-17). Gemcitabine was administered intravenously at a dosage amount of 1,000 mg/m(2) weekly x 7 for 8 weeks, then weekly x 3 every 4 weeks. 686 patients were enrolled. The median overall survival for the experimental arm was 193 v 182 days for the control arm (P=0.75).

[2] = subset intermediate IGF1, low CXCL12

Compound | Overall response rate (breast cancer; 76 patients treated) [%] | objective response rate (breast cancer; four patients with PGR(+) and ER(−) tumors) [%] | RESPONSE (breast cancer; one line per patient, PGR(+) ER(−) population) | objective response rate (breast cancer; seven patients with PGR(+) and wild type TP53 tumors) [%] | complete response (CR) (previously untreated AML; subset high IGF1, high CXCL12, out of 10 subjects) [patients] | complete response (CR) (previously untreated AML; [2]) | progressive disease (PD) as outcome (previously untreated AML; [2]) | tumor lysis syndrome (CMML) | partial responses (PR) (nodal PTCL) | median overall survival ([1]; 686 patients enrolled, tipifarnib 200 mg twice a day orally, gemcitabine 1,000 mg/m(2) IV, P=0.75) [days] | survival of patients not reporting versus reporting abdominal pain at study entry, within arm ([1]; FIG. 5B) | Neutropenia grade > or =3 ([1]; all patients, per arm) [%] | thrombocytopenia grade > or =3 ([1]; all patients, per arm) [%]
Cn1cncc1[C@@](N)(c1ccc(Cl)cc1)c1ccc2c(c1)c(-c1cccc(Cl)c1)cc(=O)n2C [tipifarnib] | 12 | 75 | NO RESPONSE | 57 | 2 | 1 | 8 | 1 | 2 | – | – | – | –
gemcitabine [gemcitabine+placebo] | – | – | – | – | – | – | – | – | – | 182 | not significantly different | 30 | 12
